In brackets after ≈: the same amount, converted by molar mass.
How the values were obtained:
Assay type in all cases: functional
Conditions in all cases: read-out: ED50 (the source's name)
P388 = test: Cytotoxicity against mouse P388 cells
HT-29 = test: Cytotoxicity against human HT-29 cells
A549 = test: Cytotoxicity against human A549 cells
SK-MEL-28 = test: Cytotoxicity against human SK-MEL-28 cells

Row | SMILES | EC50 (P388) | EC50 (HT-29) | EC50 (A549) | EC50 (SK-MEL-28)
1 | CC(=O)OCCC(C)C(=O)CC/C(=C/Cl)C(Cl)Cl (configuration not stated) | 2.5 µg/mL (≈ 7.92 µM) | 2.5 µg/mL (≈ 7.92 µM) | 1.5 µg/mL (≈ 4.75 µM) | 1.5 µg/mL (≈ 4.75 µM)
2 | CC(=O)OCC/C(C)=C(Cl)/C=C/C(C)(Cl)CBr (configuration not stated) | 2.5 µg/mL (≈ 7.27 µM) | 2.5 µg/mL (≈ 7.27 µM) | 1.5 µg/mL (≈ 4.36 µM) | 1.5 µg/mL (≈ 4.36 µM)
3 | CC(=O)OCCC(C)C(=O)CC/C(=C\Cl)C(Cl)Cl (configuration not stated) | 2.5 µg/mL (≈ 7.92 µM) | 2.5 µg/mL (≈ 7.92 µM) | 1.5 µg/mL (≈ 4.75 µM) | 1.5 µg/mL (≈ 4.75 µM)
